The supplement of paper PMC10949913

What was measured:
Assay in all cases: area under concentration-response curve (viability) (AUC (a.u.)); higher = less active
Conditions in all cases: 48 h
[1] = test system: CU-ACC1
Method in brief: (§1)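 Cells from three adrenocortical carcinoma lines were seeded at 500–1,000 cells/well in 5 µL medium in 1,536-well plates. Each library compound was added as 23 nL at 11 concentrations, and after 48 h CellTiter-Glo was added for 15 minutes at room temperature before reading luminescence. Plate-wise normalisation to vehicle and empty-well controls preceded curve fitting. AC50 and area under the curve were calculated only for inhibitory or non-responding curve classes.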

[2] = test system: NCI-H295R
Method in brief: as §1

[3] = test system: CU-ACC2
Method in brief: as §1

Structure (SMILES)	area under concentration-response curve [1]	area under concentration-response curve [2]	area under concentration-response curve [3]
CCN(CC)CCCC(C)Nc1c2ccc(Cl)cc2nc2ccc(OC)cc12.Cl.Cl.O.O (stereo not given)	402	556	561
Cc1nc(NC(=O)N2CCC[C@H]2C(N)=O)sc1-c1csc(C(C)(C)C)n1	414	377	445
CN1\C(=C(\O)C2=C(C=CS2)[S+]1([O-])=O)C(=O)NC3=CC=CC=N3	548	573	616
COC(=O)[C@H](c1ccccc1Cl)N1CCc2sccc2C1	510	521	551
O=C(NCC(=O)N1CCCC1)Nc1ccc2cnccc2c1	565	569	633
CC(C)C1CCC(C(=O)N[C@H](Cc2ccccc2)C(=O)O)CC1 (stereo not given in full)	551	599	652
C[C@@H]1[C@H](O)[C@@H](C)/C=C/C=C/C=C/C=C/C=C/C=C/C=C/[C@H](O[C@@H]2O[C@H](C)[C@@H](O)[C@H](N)[C@@H]2O)C[C@@H]2O[C@](O)(C[C@@H](O)C[C@@H](O)[C@H](O)CC[C@@H](O)C[C@@H](O)CC(=O)O[C@H]1C)C[C@H](O)[C@H]2C(=O)O	550	595	633
Cc1n[nH]c(C)c1Cc1sc2c(c1C(=O)N1C[C@H](O)CO1)c(=O)n(C)c(=O)n2CC(C)C	379	554	597
N#Cc1ccc(C2CCCc3cncn32)cc1 (stereo not given)	503	479	544
CN(CCOc1ccc(CC2SC(=O)NC2=O)cc1)c1ccccn1 (stereo not given)	515	576	644
CCc1cc(Nc2nccc(-c3c(-c4ccc(OC)c(C(=O)Nc5c(F)cccc5F)c4)nc4ccccn34)n2)c(OC)cc1N1CCC(N2CCN([S+](C)(=O)[O-])CC2)CC1	509	485	548
Cc1nnc(N[S+](=O)([O-])c2ccc(N)cc2)s1	496	546	591
CC(COc1ccccc1)N(CCCl)Cc1ccccc1 (stereo not given)	549	584	653
CNC(=O)c1cccc(-c2ccc3c(N4CCOC[C@@H]4C)nc(N4CCOC[C@@H]4C)nc3n2)c1	452	453	545
Cc1c(N)nc([C@H](CC(N)=O)NC[C@@H](N)C(N)=O)nc1C(=O)N[C@H](C(=O)N[C@@H](C)[C@H](O)[C@@H](C)C(=O)N[C@@H](C(=O)NCCc1nc(-c2nc(C(=O)NCCC[S+](C)C)cs2)cs1)[C@@H](C)O)C(O[C@H]1O[C@H](CO)[C@H](O)[C@@H](O)[C@H]1O[C@H]1O[C@H](CO)[C@@H](O)[C@H](OC(N)=O)[C@@H]1O)c1c[nH]cn1 (stereo not given in full)	508	530	614
CC(C)=CCC/C(C)=C/CC/C(C)=C/CSc1ccccc1C(=O)O	527	540	598
C[C@]12CC[C@@H]3c4ccc(OC(=O)N(CCCl)CCCl)cc4CC[C@H]3[C@@H]1CC[C@@H]2OP(=O)([O-])[O-]	489	533	466
COC[C@@H](NC(C)=O)C(=O)NCc1ccccc1	503	560	619
O=C(Nc1ccc(-c2ccnc(Nc3ccc(N4CCOCC4)cc3)n2)cc1)C1CCCN1 (stereo not given)	501	553	601
Cc1onc(-c2ccccc2)c1-c1ccc([S+](N)(=O)[O-])cc1	457	535	570
COc1cc(C)c(/C=C/C(C)=C/C=C/C(C)=C/C(=O)O)c(C)c1C	484	524	544
CCCc1cc(C(N)=S)ccn1	587	581	649
NCCCC(N)(C(=O)O)C(F)F (stereo not given)	443	491	514

Structure (SMILES)	area under concentration-response curve [1]	area under concentration-response curve [2]	area under concentration-response curve [3]
COc1cc2c(NC3CCN(C)CC3)nc(N3CCCN(C)CC3)nc2cc1OCCCN(C)C	544	564	641
COc1ccc2[nH]c(C(=O)N3CCC(CC(C)(C)O)CC3)cc2c1	484	572	609
N/C1=N/C(=O)C/2=C(NC[C@@H](CNC3=CC=C(C=C3)C(=O)N[C@@H](CCC([O-])=O)C([O-])=O)N2C=O)\N1	494	529	552
Cc1ccc(C)c(OCCCC(C)(C)C(=O)O)c1	569	572	661
C[C@@H]1CCN(C(=O)N2CCCC2)C[C@@H]1N(C)c1ncnc2[nH]ccc12	477	505	562
Cn1cc(-c2ccc(F)c(C(F)(F)F)c2)nc1C1CCN(c2ncnc3[nH]ncc23)CC1	471	510	555
CC/1=C/N([C@@H]2C[C@@H](O)[C@H](CO)O2)C(=O)NC1=O	410	404	425
C#CCN[C@@H]1CCc2ccccc21	565	590	642
O=[S+]([O-])(c1cccc2cnccc12)N1CCCNCC1	502	534	560
C[C@H](CCC(=O)O)[C@H]1CCC2C3C[C@H](O)[C@@H]4C[C@H](O)CC[C@]4(C)C3CC[C@@]21C (stereo not given in full)	454	470	501
O=S(=O)([O-])CCS	539	551	518
O=C(NCC(=O)N1CC[C@H](NC2CCC(O)(c3ccc(-c4ncccn4)cn3)CC2)C1)c1cccc(C(F)(F)F)c1 (stereo not given in full)	554	560	606
CC(C)OC1=C(F)C=C(C=C1)C2=N[N]([C@@H](C)C/3=C(C4=CC(=CC=C4)F)/C(=O)C5=CC(=CC=C5O3)F)C6=C2C(=NC=N6)N	516	547	641
CC(C)c1cc(C(C)C)c(CC(=O)N[S+](=O)([O-])Oc2c(C(C)C)cccc2C(C)C)c(C(C)C)c1	456	480	454
COc1ccc([S+](=O)([O-])N[C@@H](CNc2nc(C)nc(N3CCC(c4ccc5c(n4)NCCC5)CC3)c2C)C(=O)O)cc1	554	589	441
CC1=CC/2=C(C=C1C)N(C[C@@H](O)[C@@H](O)[C@@H](O)CO)C/3=N/C(=O)NC(=O)C3=N2	481	505	586
CCCCNc1ncc2c(-c3ccc(CN4CCN(C)CC4)cc3)cn(C3CCC(O)CC3)c2n1 (stereo not given)	513	527	585
C[C@H]1C[C@@H](n2c(Nc3ccc(OC(F)(F)F)cc3)nc3cc(CCC(=O)O)ccc32)CC(C)(C)C1	424	485	405
NC(=O)c1cnccn1	346	382	301
O=C(CO)N1CCC(c2n[nH]c(-c3ccc(Cl)cc3)c2-c2ccncn2)CC1	520	515	454
CN[C@@H](C)C(=O)N[C@H](C(=O)N1CCC[C@H]1C(=O)Nc1sc(-c2ncco2)nc1-c1ccccc1)C1CCCCC1	457	461	530
CCCC\1=C(/CNC(=O)C2=CC(=CC3=C2C=N[N]3C(C)C)C4=CC=C(N=C4)N5CCN(CC5)C(C)C)C(=O)NC(=C1)\C	379	472	485
